What was measured:
Assay type in all cases: in vivo
Radish = assay: Growth accelerating effect on radish (pot grown); conditions: 200 L per 10 a, applied 15 and 21 days after seeding, measured 28 days after seeding
Procedure: (§1) Radish was seeded in a pot and grown. The soil used was a sterilized compost containing fertilizer components (180 mg/L of nitrogen, 120 mg/L of phosphoric acid, 220 mg/L of potassium). The plants were set at 4 plants/pot and 4 pots/area. 15 days after and 21 days after seeding, 200 L per 10 a of aqueous solutions containing 0.06 ppm or 0.6 ppm of 5-amino-4-hydroxypentanoic acid was applied. 28 days after seeding, the fresh weight of the edible part was measured.

Komatsuna turnip green = assay: Growth accelerating effect on Komatsuna turnip green (field grown); conditions: 0.06 ppm
Procedure: Komatsuna turnip green was seeded and grown at a field. The soil used was red clay. The plants were set at 40 to 52 plants/section and 2 to 3 sections/area. A coated fertilizer (containing 13% nitrogen, 11% phosphoric acid and 13% potassium) as a basal fertilizer was applied so that nitrogen was 50 kg per 10 a. 22 days after seeding, 1000 L per 10 a of an aqueous solution containing 0.06 ppm of 5-amino-4-hydroxypentanoic acid was applied twice. 42 days after seeding, the fresh weight of the above-ground part was measured.

Barley = assay: Growth accelerating effect on barley (pot grown); conditions: 200 L per 10 a, applied 22 days after seeding, measured 35 days after seeding
Procedure: Barley was seeded in a pot and grown. The soil used was black soil. The plants were set at 4 plants/pot and 4 to 6 pots/area. A chemical fertilizer (containing 8% of nitrogen, phosphoric acid and potassium respectively) as a basal fertilizer was applied so that each of nitrogen, phosphoric acid and potassium was 5 kg per 10 a. 22 days after seeding, 200 L per 10 a of aqueous solutions containing 0.006 ppm, 0.06 ppm or 0.6 ppm, of 5-amino-4-hydroxypentanoic acid was applied. 35 days after seeding, the plant height, tillering and dry weight of the above-ground part were measured.

Garland chrysanthemum = assay: Growth accelerating effect on garland chrysanthemum (pot grown); conditions: 200 L per 10 a, applied 4, 5, 6 and 7 weeks after seeding, measured 8 weeks after seeding
Procedure: as §1, with “Garland chrysanthemum” for “Radish”, “4, 5, 6” for “15 days after”, “7 weeks” for “21 days”, “8 weeks” for “28 days”, “above-ground” for “edible”

Broccoli = assay: Growth accelerating effect on broccoli (pot grown); conditions: 0.6 ppm
Procedure: Commercial young plants were settled in a pot and grown. The soil used was a sterilized compost containing fertilizer components (180 mg/L of nitrogen, 120 mg/L of phosphoric acid, 220 mg/L of potassium). The plants were set at 1 plant/pot and 4 pots/area. Every week (2 weeks through 10 weeks) after settling, 200 L per 10 a of an aqueous solution containing 0.6 ppm of 5-amino-4-hydroxypentanoic acid was applied. 11 weeks after settling, the fresh weight of the edible part was measured.

## NCC(O)CCC(=O)O (centres unmarked) [5-amino-4-hydroxypentanoic acid]
Radish; 0.06 ppm
  Fresh weight of edible part (average): 2.26 g
Radish; 0.6 ppm
  Fresh weight of edible part (average): 2.54 g
Komatsuna turnip green; 42 days after seeding
  Increase of fresh weight of the above-ground part compared with the control area: 19%
Komatsuna turnip green; field, 1000 L per 10 a, applied twice, 22 days after seeding, measured 42 days after seeding
  Fresh weight of above-ground part (average): 40.6 g
Barley; 0.006 ppm aqueous solution
  Plant length (average): 19.4 cm
Barley; 0.006 ppm
  Dry weight of above-ground part (average): 103 mg
  Tillering (average): 3.50
Barley; 0.06 ppm aqueous solution
  Plant length (average): 20.1 cm
Barley; 0.06 ppm
  Dry weight of above-ground part (average): 103 mg
  Tillering (average): 3.53
Barley; 0.6 ppm aqueous solution
  Plant length (average): 20.2 cm
Barley; 0.6 ppm
  Dry weight of above-ground part (average): 112 mg
  Tillering (average): 3.79
Garland chrysanthemum; 0.06 ppm
  Fresh weight of above-ground part (average): 25.5 g
Garland chrysanthemum; 0.6 ppm
  Fresh weight of above-ground part (average): 24.8 g
Broccoli; 11 weeks after settling
  Increase of fresh weight of the edible part compared with the control area: 6%
Broccoli; 200 L per 10 a, applied every week (2 through 10 weeks) after settling, measured 11 weeks after settling
  Fresh weight of edible part (average): 39.2 g

Source: patent publication US9693554B2, “Plant growth accelerator” (COSMO OIL CO., LTD., priority 2013, dated 2017)
